Data as given in patent publication US20260285850A1, “SUBSTITUTED OXAZOLIDINONES AND IMIDAZOLINONES AS HERBICIDES” (FMC CORPORATION, priority 2023, published 2026).

Tests used:
Assay type in all cases: in vivo
[1] = test system: ryegrass, Italian (italian ryegrass, Lolium multiflorum); assay: Test A preemergence soil spray, visual injury rating 0-100; details: 10 days
Outline: (§1)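 Compounds formulated in a non-phytotoxic solvent with surfactant are sprayed onto soil of freshly planted loam-sand pots ahead of emergence, or onto emerged plants 2-10 cm tall. After a 10-day greenhouse period, each species is scored visually for injury against untreated controls.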

[2] = test system: palmer (palmer amaranth, palmer pigweed, Amaranthus palmeri); assay: as above; details: 10 days
Outline: as §1

[3] = test system: oat, wild (wild oat, Avena fatua); assay: as above; details: 10 days
Outline: as §1

[4] = test system: barnyardgrass (Echinochloa crus-galli); assay: as above; details: 10 days
Outline: as §1

corn (Zea mays) [5] = assay: as above; details: 10 days
Outline: as §1

soybean (Glycine max) [6] = assay: as above; details: 10 days
Outline: as §1

[7] = test system: blackgrass (Alopecurus myosuroides); assay: as above; details: 10 days
Outline: as §1

[8] = test system: ragweed (common ragweed, Ambrosia artemisiifolia); assay: as above; details: 10 days
Outline: as §1

[9] = test system: wheat (Triticum aestivum); assay: as above; details: 10 days
Outline: as §1

[10] = test system: green foxtail (Setaria viridis); assay: as above; details: 10 days
Outline: as §1

[11] = test system: barnyardgrass (Echinochloa crusgalli); assay: Test B flooded paddy test, visual plant response rating 0-100; details: 250 g ai/ha, Flood, applied to paddy water, evaluated after 13 days
Outline: (§2)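 Treatment occurs at the 2-leaf stage by adding compound to floodwater standing 3 cm above the soil, a level kept for the whole test. Plants stay in the greenhouse 13 days before visual comparison with controls.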

[12] = test system: sedge, umbrella (small-flower umbrella sedge, Cyperus difformis); assay: as above; details: 250 g ai/ha, Flood, applied to paddy water, evaluated after 13 days
Outline: as §2

[13] = test system: ducksalad (Heteranthera limosa); assay: as above; details: 250 g ai/ha, Flood, applied to paddy water, evaluated after 13 days
Outline: as §2

rice (Oryza sativa) = assay: as above; details: 250 g ai/ha, Flood, applied to paddy water, evaluated after 13 days
Outline: as §2

[14] = test system: ryegrass, Italian (italian ryegrass, Lolium multiflorum); assay: Test A postemergence application, visual injury rating 0-100
Outline: as §1

[15] = test system: palmer (palmer amaranth, palmer pigweed, Amaranthus palmeri); assay: as above
Outline: as §1

[16] = test system: oat, wild (wild oat, Avena fatua); assay: as above
Outline: as §1

kochia (Bassia scoparia) = assay: as above
Outline: as §1

[17] = test system: barnyardgrass (Echinochloa crus-galli); assay: as above
Outline: as §1

corn (Zea mays) [18] = assay: as above
Outline: as §1

soybean (Glycine max) [19] = assay: as above
Outline: as §1

[20] = test system: galium (catchweed bedstraw, Galium aparine); assay: as above; details: Postemergence, 16 g ai/ha, greenhouse 10 days; 0 no effect, 100 complete control
Outline: as §1

[21] = test system: blackgrass (Alopecurus myosuroides); assay: as above
Outline: as §1

[22] = test system: ragweed (common ragweed, Ambrosia artemisiifolia); assay: as above
Outline: as §1

[23] = test system: wheat (Triticum aestivum); assay: as above
Outline: as §1

[24] = test system: green foxtail (Setaria viridis); assay: as above
Outline: as §1

[25] = test system: horseweed (Erigeron canadensis); assay: as above
Outline: as §1

[26] = 62 g ai/ha, 0 = no effect, 100 = complete control
[27] = 62 g ai/ha, postemergence, 10 days, 0 = no effect, 100 = complete control
[28] = Postemergence, 16 g ai/ha, greenhouse 10 days, 0 no effect, 100 complete control

COC(=O)C1=CCC(NC(=O)C2(C)CN(c3cc(Cl)cc(Cl)c3)C(=O)O2)C1 (stereo not shown) [Compound 148]
Ryegrass, Italian plant response rating ([1]; 16 g ai/ha, 0 to 100 scale): 0
Ryegrass, Italian plant response rating (0-100) [1, 26]: 0
Pigweed, Palmer plant response rating ([2]; 16 g ai/ha, 0 to 100 scale): 0
Pigweed, Palmer plant response rating (0-100) [2, 26]: 0
Oat, Wild plant response rating ([3]; 16 g ai/ha, 0 to 100 scale): 0
Oat, Wild plant response rating (0-100) [3, 26]: 0
Barnyardgrass plant response rating ([4]; 16 g ai/ha, 0 to 100 scale): 0
Barnyardgrass plant response rating (0-100) [4, 26]: 0
Corn plant response rating (corn (Zea mays) [5]; 16 g ai/ha, 0 to 100 scale): 0
Corn plant response rating (0-100) (corn (Zea mays) [5]; [26]): 0
Soybean plant response rating (soybean (Glycine max) [6]; 16 g ai/ha, 0 to 100 scale): 0
Soybean plant response rating (0-100) (soybean (Glycine max) [6]; [26]): 20
Blackgrass plant response rating ([7]; 16 g ai/ha, 0 to 100 scale): 0
Blackgrass plant response rating (0-100) [7, 26]: 0
Ragweed plant response rating ([8]; 16 g ai/ha, 0 to 100 scale): 0
Ragweed plant response rating (0-100) [8, 26]: 0
Wheat plant response rating ([9]; 16 g ai/ha, 0 to 100 scale): 0
Wheat plant response rating (0-100) [9, 26]: 0
Foxtail, Green plant response rating ([10]; 16 g ai/ha, 0 to 100 scale): 0
Foxtail, Green plant response rating (0-100) [10, 26]: 0
Plant response rating, Barnyardgrass (0 to 100 scale, 0 is no effect and 100 is complete control) [11]: 0
Plant response rating, Sedge, Umbrella (0 to 100 scale, 0 is no effect and 100 is complete control) [12]: 0
Plant response rating, Ducksalad (0 to 100 scale, 0 is no effect and 100 is complete control) [13]: 0
Plant response rating, Rice (0 to 100 scale, 0 is no effect and 100 is complete control) (rice (Oryza sativa)): 0
Ryegrass, Italian plant response rating (0-100) [14, 27]: 50
Ryegrass, Italian plant response rating (0 to 100 scale) [14, 28]: 0
Pigweed, Palmer plant response rating (0-100) [15, 27]: 80
Pigweed, Palmer plant response rating (0 to 100 scale) [15, 28]: 10
Oat, Wild plant response rating (0-100) [16, 27]: 10
Oat, Wild plant response rating (0 to 100 scale) [16, 28]: 0
Kochia plant response rating (0-100) (kochia (Bassia scoparia); [27]): 80
Kochia plant response rating (0 to 100 scale) (kochia (Bassia scoparia); [28]): 0
Barnyardgrass plant response rating (0-100) [17, 27]: 90
Barnyardgrass plant response rating (0 to 100 scale) [17, 28]: 0
Corn plant response rating (0-100) (corn (Zea mays) [18]; [27]): 70
Corn plant response rating (0 to 100 scale) (corn (Zea mays) [18]; [28]): 0
Soybean plant response rating (0-100) (soybean (Glycine max) [19]; [27]): 50
Soybean plant response rating (0 to 100 scale) (soybean (Glycine max) [19]; [28]): 0
Galium plant response rating (0 to 100 scale) [20]: 40
Blackgrass plant response rating (0-100) [21, 27]: 70
Blackgrass plant response rating (0 to 100 scale) [21, 28]: 0
Ragweed plant response rating (0-100) [22, 27]: 0
Ragweed plant response rating (0 to 100 scale) [22, 28]: 0
Wheat plant response rating (0-100) [23, 27]: 30
Wheat plant response rating (0 to 100 scale) [23, 28]: 10
Foxtail, Green plant response rating (0-100) [24, 27]: 30
Foxtail, Green plant response rating (0 to 100 scale) [24, 28]: 0
Horseweed plant response rating (0-100) [25, 27]: 0
Horseweed plant response rating (0 to 100 scale) [25, 28]: 0
